What all share (assay): NCI-60 cell line screen, 48 h
For test [1], the system named is MOLT-4 leukemia.
For test [2], the system named is ACHN renal.
In test [3] the test system is SNB-19 CNS.
Test [4] deals with CCRF-CEM leukemia.
Test [5] concerns OVCAR-4 ovarian.
The subject of test [6] is SN12C renal.
The test system of test [7] is CAKI-1 renal.
The test system of test [8] is SR leukemia.
Test [9] deals with NCI-H23 lung.
The test system of test [10] is HCC-2998 colon.
For test [11], the system named is BT-549 breast.

SMILES strings stand for the structures.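 Test compounds were applied to cells in 96-well plates for 48 hours at 5 doses. TGI: concentration producing complete growth inhibition.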 Where a SMILES comes first, the peptide text is derived from it. [ ]: non-standard residue; d: D form. The star is where a group is joined. ξ: configuration not given here. X37 = O=C(OCc1ccccc1)[C@@H]1CCC[C@H]1N*; Fmoc = O=C(OCC1c2ccccc2-c2ccccc21)*; ξW = NC(Cc1c[nH]c2ccccc12)C(=O)O; ξF = NC(Cc1ccccc1)C(=O)O; Boc = CC(C)(C)OC(=O)*; ξK = NCCCCC(N)C(=O)O; ξT = CC(O)C(N)C(=O)O; OBn = c1ccc(CO*)cc1; Bn = c1ccc(C*)cc1; tBu = CC(C)(C)*

With `O=Cc1cc(O)c(O)c(O)c1-c1c(C=O)cc(O)c(O)c1O`, the TGI in [1], in test [2], in test [3], in test [4], in test [5] and in test [6] was > 100 µM in each case. The TGI in test [7], in [8], in test [9] and in test [10] was > 100 µM throughout.

As to `O=C(/C=C1\N=C(c2ccccc2)N(c2ccc3c(c2)Sc2cc(N4C(=O)/C(=C/C(=O)/C=C/c5ccccc5)N=C4c4ccccc4)ccc2N3)C1=O)/C=C/c1ccccc1`, the TGI in test [1] is > 100 µM; in test [2] it was > 100 µM; in test [3], 80 µM; in [4], 63 µM; in [5], 41.8 µM; in [6], > 100 µM. Moreover, the TGI in test [11] was 52.6 µM; in test [7], > 100 µM; in test [9], > 100 µM; in test [10] it was > 100 µM.

Regarding `CCCCc1ccc(N2C(=O)c3cc(C)cnc3S2(=O)=O)cc1`, the TGI in test [1], in test [2], in test [3], in test [5], in [6] and in test [8] was > 100 µM each time. Further, the TGI in test [9] and in [10] was > 100 µM throughout.

For `COc1ccc(N(C(=O)OC(C)(C)C)[C@@H]2C(C)=C[C@H]([S@@](=O)c3ccc(C)cc3)[C@@H]3C(=O)N(C)C(=O)[C@@H]32)cc1`, the TGI is 94.6 µM in test [1]; 43.8 µM in test [2]; 51.5 µM in [3]; > 100 µM in [4]; 34.2 µM in [5]; 32.2 µM in [6]. Moreover, the TGI in test [11] is 33.9 µM; in [7] it was 52.6 µM; in test [9], 45.7 µM.

Take `CC1OC(OP(=O)(OCc2ccccc2)OCc2ccccc2)C(OC(=O)c2ccccc2)C(OC(=O)c2ccccc2)C1I` (configuration not stated): the TGI in [1] was 59.1 µM; in test [2], > 100 µM; in test [3] it was > 100 µM; in test [4], > 100 µM; in test [5], > 100 µM; in test [6], 52.5 µM. For the same compound, the TGI is > 100 µM in test [7], 80.7 µM in test [8], > 100 µM in test [9] and > 100 µM in test [10].

As to `CCC1OC2C(CC=C(C)C)=C3OC(C)(O)C(C)(CC)C(O)C3=C3OC(=O)C=C1C32` (configuration not stated), the TGI in [1] is > 100 µM; in [2], > 100 µM; in test [3], > 100 µM; in test [4] it was > 100 µM; in [5], > 100 µM; in [11], 71 µM. The TGI was > 100 µM in test [7], 57.7 µM in [9] and > 100 µM in test [10].

With `COc1cccc(-n2nnc3c(N)nc(N)nc32)c1`, the TGI in test [1], in test [2], in test [3], in [4], in test [5] and in [6] was > 100 µM throughout. For the same compound, the values for the TGI in [11], in test [7] and in test [9] were > 100 µM, > 100 µM and 76.3 µM, respectively.

Regarding `CCCCc1cc2c(cc1O)CCC1C2CC[C@@]2(C)C1CC[C@@H]2O` (some centres not stated), the TGI was 28.2 µM in [1]; 29.7 µM in [2]; > 100 µM in test [3]; 56.7 µM in test [4]; 37.3 µM in [5]; 39.3 µM in test [6]. Besides, the TGI was 52.6 µM in [7], 51.3 µM in test [8], 41.3 µM in test [9] and 50.9 µM in [10].

As to `C=C1C(=O)O[C@H]2C1C[C@@H](O)[C@@]1(C)OC1CC[C@@]1(C)O[C@H]21` (some centres not stated), the TGI in [1] was 24.8 µM; in test [2], 27 µM; in test [3], > 100 µM; in test [4] it was 23.1 µM; in test [5], 30.3 µM; in [6] it was 42.4 µM. Moreover, the TGI was 34.1 µM in [7], 39.8 µM in test [8], 37.4 µM in test [9] and 30.7 µM in test [10].

On to `COC(=O)CSc1[nH]c2nc(C)nc(Nc3ccccc3)c2c1C#N`, for which the TGI in test [1], in test [4], in [5], in [6], in test [7] and in test [8] was > 10 µM throughout. Further, the TGI in test [9] and in test [10] was > 10 µM in each case.

Take `COc1ccc(NS(=O)C2CCCCC2)cc1` (configuration not stated): the TGI in test [1], in [2], in test [3], in test [4], in test [6] and in test [7] was > 100 µM each time. In addition, the TGI in [8], in [9] and in test [10] was > 100 µM in each case.

With `C[Si](C)(C)C#C[I+]c1ccccc1`, the TGI in test [1] is > 100 µM; in test [2] it was > 100 µM; in test [3] it was > 100 µM; in test [4], 75.8 µM; in test [5], > 100 µM; in test [6], 64.7 µM. Besides, the TGI in test [7], in test [9] and in test [10] was > 100 µM throughout.

Take `Cc1cc2nc3c(C#N)c(-c4ccccc4)/c(=C\Nc4cccc(C(F)(F)F)c4)c(=O)n3c2cc1C`: the TGI in test [2], in test [3], in test [4], in test [5], in test [6] and in test [11] was > 100 µM throughout. For the same compound, the TGI in test [7], in [9] and in test [10] was > 100 µM throughout.

As to `N#Cc1nn(-c2ccc(Cl)cc2)c(N)c2c(=N)n3nc(-c4ccccc4)cc3nc12`, the TGI in [1], in [2], in test [3], in [4], in [6] and in [7] was > 100 µM each time. The TGI in test [8] was 10.7 µM; in [9], > 51.9 µM; in test [10], 0.0134 µM.

Consider `COc1ccc2cc(C(=O)NCCc3ccccc3)ccc2c1OC`, for which the TGI in test [1], in test [2], in [3], in test [5], in test [6] and in test [7] was > 100 µM in each case. Further, the TGI in [8], in test [9] and in test [10] was > 100 µM in each case.

Take `N=C(/C=C/c1ccc(-c2cn3cc(/C=C/C(=N)N4CCOCC4)ccc3n2)cc1)N1CCOCC1`: the TGI in test [2], in [3], in test [5], in test [6], in test [11] and in test [7] was > 100 µM throughout. The TGI in [9] and in test [10] was > 100 µM each time.

Take `CC(C)=NN/C(=N\S(=O)(=O)c1cc(Cl)c(Oc2ccc([N+](=O)[O-])cc2Cl)c(Cl)c1)Nc1ccc(Cl)cc1`: the TGI in [1], in [3], in test [4], in test [5], in test [6] and in test [11] was > 100 µM each time. The TGI in test [7] and in test [9] was > 100 µM throughout.

Turning to `Cc1c(Cl)cccc1NC(=O)C(=O)C1C(=O)NC(=O)NC1=O`, the TGI in [1], in test [2], in test [3], in test [4], in test [5] and in test [6] was > 100 µM throughout. For the same compound, the TGI in [7], in [8], in test [9] and in test [10] was > 100 µM throughout.

As to `Cc1cccc(Nc2cn(CCOc3ccccc3)c(=O)[nH]c2=O)c1`, the TGI in [1] is > 100 µM; in test [2], > 100 µM; in test [3], > 100 µM; in [4], > 100 µM; in [5] it was > 100 µM; in [6], 81.7 µM. In addition, the TGI in [7] is > 100 µM; in [8] it was > 100 µM; in test [9], > 100 µM; in test [10], 91.6 µM.

Regarding `CC(=O)OC(C)(C)C1CCC(C)(C(O)COc2ccc(CCNC(=O)c3ccccc3)cc2)O1` (configuration not stated), the TGI in test [1] was 42.5 µM; in [2], > 100 µM; in [3] it was > 100 µM; in [4], > 100 µM; in test [5], > 100 µM; in [6], > 100 µM. The TGI in test [7], in test [8] and in test [9] was > 100 µM throughout.

On to `CC(OC(C)(C)C)C(NC(=O)C(CCCCNC(=O)OC(C)(C)C)NC(=O)C(Cc1c[nH]c2ccccc12)NC(=O)C(Cc1ccccc1)NC(=O)OCC1c2ccccc2-c2ccccc21)C(=O)NC(Cc1ccccc1)C(=O)N[C@@H]1CCC[C@H]1C(=O)OCc1ccccc1` (some centres not stated) (Fmoc-[ξF][ξW][ξK](Boc)[ξT](tBu)[ξF]-X37), for which the TGI in test [1], in test [2], in [4], in [5], in [6] and in test [7] was > 100 µM each time. Moreover, the TGI in test [8], in test [9] and in [10] was > 100 µM in each case.

Regarding `CC(=O)OC1COC(N2C(=O)C(=O)c3cc(Br)c([N+](=O)[O-])cc32)C(OC(C)=O)C1OC(C)=O` (configuration not stated), the TGI in test [1] was 88.5 µM; in test [2] it was > 100 µM; in test [3], > 100 µM; in test [4] it was 89.2 µM; in test [5] it was > 100 µM; in test [6] it was > 100 µM. Further, the TGI in test [7], in test [8], in test [9] and in test [10] was > 100 µM in each case.

In the case of `C[C@H](NC(=O)OC1C2C=CC(O)C1CC2)c1ccccc1` (some centres not stated), the TGI in [1], in test [2], in [3], in test [4], in test [5] and in [6] was > 100 µM throughout. For the same compound, the TGI in [7] was > 100 µM; in [8], 46.2 µM; in [9] it was > 100 µM; in test [10], > 100 µM.

As for `NS(=O)(=O)c1ccc(CNC(=S)NC(=O)Nc2ccc(Cl)c(Cl)c2)cc1`, the TGI in [1] was 40.2 µM; in [2], 46 µM; in [3], 44.3 µM; in test [4] it was 43.4 µM; in [5] it was > 100 µM; in test [6], 33.3 µM. Moreover, the figures for the TGI in test [11] and in test [9] were 34.7 µM and 30.2 µM, respectively.

On to `CC(C)CC(NC(=O)C(Cc1ccccc1)NC(=O)C(COCc1ccccc1)NC(=O)OC(C)(C)C)C(=O)OCc1ccccc1` (stereo not drawn) (Boc-Ser(Bn)-Phe-Leu-OBn; configuration not given here), for which the TGI in [1] was 33.4 µM; in [2], 33.1 µM; in test [3], > 100 µM; in test [4], 63.7 µM; in test [5], > 100 µM; in test [6], 63.9 µM. Besides, the TGI in test [7] was > 100 µM; in test [8] it was 44.3 µM; in test [9] it was 43.2 µM; in [10] it was 27.8 µM.

In the case of `CC(=O)c1ccc2c(c1)CC1(C2)Cc2cc3c(cc2C1)C(=O)CC3` (configuration not stated), the TGI in test [2] is 35.2 µM; in test [3], > 100 µM; in [4], 3.87 µM; in test [5] it was > 73.6 µM; in [6] it was > 100 µM; in test [7], 33.5 µM. Further, the TGI stood at 0.963 µM in [8], 14.7 µM in [9] and 7.48 µM in [10].

Take `OC(Cn1cncn1)(Cn1cncn1)c1ccc(Cl)cc1Cl`: the TGI in [1], in test [2], in [4], in test [5], in [6] and in test [7] was > 100 µM in each case. For the same compound, the TGI in test [8] and in test [9] was > 100 µM throughout.
